From PMC7301697 (Journal of Enzyme Inhibition and Medicinal Chemistry, 2020)
pKd: −log10 of the molar value.

Key:
[1] = target: T1, Polyphosphate kinase 1 (PPK1) (Escherichia coli, UniProt P0A7B1); experiment: SPR single-concentration response at […]; format: binding
T1 sequence (P0A7B1 2-688): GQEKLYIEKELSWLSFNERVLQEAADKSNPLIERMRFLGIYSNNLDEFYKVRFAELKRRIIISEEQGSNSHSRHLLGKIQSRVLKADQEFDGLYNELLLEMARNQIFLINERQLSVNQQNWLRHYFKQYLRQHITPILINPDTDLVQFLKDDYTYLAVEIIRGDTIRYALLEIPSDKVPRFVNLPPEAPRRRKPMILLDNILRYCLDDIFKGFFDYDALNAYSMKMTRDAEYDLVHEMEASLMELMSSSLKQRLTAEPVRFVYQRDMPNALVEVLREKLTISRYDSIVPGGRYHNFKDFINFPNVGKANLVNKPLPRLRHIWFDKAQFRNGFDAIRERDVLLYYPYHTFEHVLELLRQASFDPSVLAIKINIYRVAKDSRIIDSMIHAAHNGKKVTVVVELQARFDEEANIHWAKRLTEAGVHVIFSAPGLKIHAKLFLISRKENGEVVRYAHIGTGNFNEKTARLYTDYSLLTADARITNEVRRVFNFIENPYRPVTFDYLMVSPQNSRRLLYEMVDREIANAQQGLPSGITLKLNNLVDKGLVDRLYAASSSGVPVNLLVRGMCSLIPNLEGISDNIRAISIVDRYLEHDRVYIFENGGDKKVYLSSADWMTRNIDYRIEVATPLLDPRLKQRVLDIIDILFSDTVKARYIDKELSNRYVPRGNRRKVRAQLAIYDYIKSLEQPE

[2] = target: T1, Polyphosphate kinase 1 (PPK1); experiment: SPR; format: binding

Row | SMILES | SPR single-concentration response at 100 μM (positive control) [1] | pKd [2]
1 | COc1cc([C@@H]2c3cc4c(cc3[C@@H](O[C@@H]3O[C@@H]5CO[C@@H](C)O[C@H]5[C@H](O)[C@H]3O)[C@H]3COC(=O)[C@H]23)OCO4)cc(OC)c1O [Etoposide] | 3.06 100RU/Da | 
2 | O=[N+]([O-])c1ccc2nc(-c3ccc(Cl)cc3)[nH]c2c1 [compound 8, 8] |  | 4.07
3 | Cc1ccc(C(=O)Nc2ccc(Cl)cc2)cc1C(F)(F)F [compound 17, 17] |  | 4.07
